What all share (assay type): functional
For experiment [1], the system named is Staphylococcus aureus. Put plainly: Antibacterial activity against methicillin-resistant Staphylococcus aureus CCARM 3506 clinical isolate after 24 hrs by broth microdilution method. Particulars: CCARM 3506, 24 h. On the technique in general: Dilution methods test growth across graded concentrations, often in twofold steps.
The subject of a further experiment is Escherichia coli. Put plainly: Antibacterial activity against Escherichia coli CCARM 1356 after 24 hrs by broth microdilution method. As to conditions: CCARM 1356, 24 h.
In experiment [2] the test system is Staphylococcus aureus. Put plainly: Antibacterial activity against Staphylococcus aureus RN4220 after 24 hrs by broth microdilution method. Particulars: RN4220, 24 h.
The test system of experiment [3] is Staphylococcus aureus. The experiment can be described thus: Antibacterial activity against quinolone-resistant Staphylococcus aureus CCARM 3505 clinical isolate after 24 hrs by broth microdilution method. Particulars: CCARM 3505, 24 h.
The test system of experiment [4] is Staphylococcus aureus. The experiment can be described thus: Antibacterial activity against Staphylococcus aureus KCTC 209 after 24 hrs by broth microdilution method. Particulars: KCTC 209, 24 h.
For experiment [5], the system named is Staphylococcus aureus. Put plainly: Antibacterial activity against Staphylococcus aureus KCTC 503 after 24 hrs by broth microdilution method. Particulars: KCTC 503, 24 h.
Experiment [6] relates to Staphylococcus aureus. The experiment can be described thus: Antibacterial activity against methicillin-resistant Staphylococcus aureus CCARM 3167 clinical isolate after 24 hrs by broth microdilution method. As to conditions: CCARM 3167, 24 h.
For experiment [7], the system named is Staphylococcus aureus. Put plainly: Antibacterial activity against quinolone-resistant Staphylococcus aureus CCARM 3519 clinical isolate after 24 hrs by broth microdilution method. As to conditions: CCARM 3519, 24 h.

In brackets after ≈: the same amount, converted by molar mass.

What is called MIC is the lowest concentration that inhibits growth of the organism. Low readings indicate a more susceptible organism, high ones a less susceptible organism. As for `O=C1NC(=S)S/C1=C/c1ccc(/C=C/C(=O)c2ccccc2F)cc1`, the MIC against Staphylococcus aureus [1], in the experiment with Escherichia coli, against Staphylococcus aureus [2], in the experiment with Staphylococcus aureus [3], against Staphylococcus aureus [4] and with Staphylococcus aureus [5] was over 64 µg/mL throughout. Further, the MIC in the experiment on Staphylococcus aureus [6] and in the experiment with Staphylococcus aureus [7] was over 64 µg/mL in each case.
Take `COc1cccc(C(=O)/C=C/c2ccc(C=O)cc2)c1`: the MIC against Staphylococcus aureus [1], against Escherichia coli, with Staphylococcus aureus [2], in the experiment on Staphylococcus aureus [3], in the experiment with Staphylococcus aureus [4] and in the experiment with Staphylococcus aureus [5] was over 64 µg/mL each time. Besides, the MIC with Staphylococcus aureus [6] and in the experiment with Staphylococcus aureus [7] was over 64 µg/mL throughout.
Turning to `O=C1NC(=S)S/C1=C/c1ccc(/C=C/C(=O)c2ccc(Cl)cc2)cc1`, the MIC in the experiment on Staphylococcus aureus [1], with Escherichia coli, against Staphylococcus aureus [2], against Staphylococcus aureus [3], against Staphylococcus aureus [4] and against Staphylococcus aureus [5] was over 64 µg/mL each time. Besides, the MIC against Staphylococcus aureus [6] and against Staphylococcus aureus [7] was over 64 µg/mL throughout.
In the case of `O=C1NC(=S)NC(=O)C1=Cc1ccc(/C=C/C(=O)c2ccccc2Cl)cc1`, the MIC with Staphylococcus aureus [1], against Escherichia coli, in the experiment on Staphylococcus aureus [2], in the experiment on Staphylococcus aureus [3], in the experiment with Staphylococcus aureus [4] and in the experiment with Staphylococcus aureus [5] was over 64 µg/mL in each case. Also, the MIC with Staphylococcus aureus [6] and against Staphylococcus aureus [7] was over 64 µg/mL throughout.
Take `Cc1ccc(C(=O)/C=C/c2ccc(C=O)cc2)cc1`: the MIC against Staphylococcus aureus [1], against Escherichia coli, in the experiment on Staphylococcus aureus [2], against Staphylococcus aureus [3], in the experiment with Staphylococcus aureus [4] and with Staphylococcus aureus [5] was over 64 µg/mL each time. For the same compound, the MIC against Staphylococcus aureus [6] and against Staphylococcus aureus [7] was over 64 µg/mL throughout.
Turning to `COc1ccc(C(=O)/C=C/c2ccc(C=O)cc2)cc1`, the MIC in the experiment on Staphylococcus aureus [1], with Escherichia coli, with Staphylococcus aureus [2], in the experiment on Staphylococcus aureus [3], with Staphylococcus aureus [4] and against Staphylococcus aureus [5] was over 64 µg/mL in each case. For the same compound, the MIC in the experiment with Staphylococcus aureus [6] and in the experiment with Staphylococcus aureus [7] was over 64 µg/mL in each case.
Take `O=Cc1ccc(/C=C/C(=O)c2ccc(Cl)cc2Cl)cc1`: the MIC against Staphylococcus aureus [1], against Escherichia coli, with Staphylococcus aureus [2], in the experiment with Staphylococcus aureus [3], against Staphylococcus aureus [4] and against Staphylococcus aureus [5] was over 64 µg/mL each time. Moreover, the MIC in the experiment with Staphylococcus aureus [6] and with Staphylococcus aureus [7] was over 64 µg/mL in each case.
For the compound `O=C1NC(=S)NC(=O)C1=Cc1ccc(/C=C/C(=O)c2ccccc2F)cc1`, the MIC against Staphylococcus aureus [1], against Escherichia coli, against Staphylococcus aureus [2], against Staphylococcus aureus [3], against Staphylococcus aureus [4] and in the experiment with Staphylococcus aureus [5] was over 64 µg/mL throughout. Moreover, the MIC in the experiment on Staphylococcus aureus [6] and in the experiment on Staphylococcus aureus [7] was over 64 µg/mL in each case.
Regarding `O=Cc1ccc(/C=C/C(=O)c2ccccc2F)cc1`, the MIC with Staphylococcus aureus [1], against Escherichia coli, against Staphylococcus aureus [2], with Staphylococcus aureus [3], against Staphylococcus aureus [4] and in the experiment on Staphylococcus aureus [5] was over 64 µg/mL throughout. The MIC in the experiment on Staphylococcus aureus [6] and against Staphylococcus aureus [7] was over 64 µg/mL throughout.
On to `O=C1NC(=S)NC(=O)C1=Cc1ccc(/C=C/C(=O)c2cccc(Cl)c2)cc1`, for which the minimum inhibitory concentration (MIC) against Staphylococcus aureus [1], in the experiment on Escherichia coli, in the experiment with Staphylococcus aureus [2], in the experiment with Staphylococcus aureus [3], against Staphylococcus aureus [4] and in the experiment on Staphylococcus aureus [5] was over 64 µg/mL in each case. Also, the MIC against Staphylococcus aureus [6] and against Staphylococcus aureus [7] was over 64 µg/mL each time.
In the case of `O=Cc1ccc(OCc2cccc(Cl)c2)cc1`, the MIC against Staphylococcus aureus [1], against Escherichia coli, against Staphylococcus aureus [2], against Staphylococcus aureus [3], with Staphylococcus aureus [4] and against Staphylococcus aureus [5] was over 64 µg/mL each time. In addition, the MIC against Staphylococcus aureus [6] and with Staphylococcus aureus [7] was over 64 µg/mL each time.
For `O=C1NC(=S)NC(=O)C1=Cc1ccc(/C=C/C(=O)c2ccc(Cl)cc2)cc1`, the MIC in the experiment on Staphylococcus aureus [1], against Escherichia coli, with Staphylococcus aureus [2], in the experiment with Staphylococcus aureus [3], against Staphylococcus aureus [4] and in the experiment with Staphylococcus aureus [5] was over 64 µg/mL each time. Besides, the MIC with Staphylococcus aureus [6] and in the experiment with Staphylococcus aureus [7] was over 64 µg/mL in each case.
Consider `O=Cc1ccc(OCc2ccc(F)cc2)cc1`, for which the MIC with Staphylococcus aureus [1], against Escherichia coli, with Staphylococcus aureus [2], in the experiment on Staphylococcus aureus [3], in the experiment on Staphylococcus aureus [4] and in the experiment on Staphylococcus aureus [5] was over 64 µg/mL in each case. Besides, the MIC in the experiment with Staphylococcus aureus [6] and in the experiment on Staphylococcus aureus [7] was over 64 µg/mL throughout.
As for `CCn1cc(C(=O)O)c(=O)c2cc(F)c(N3CCNCC3)cc21` [NORFLOXACIN], the minimum inhibitory concentration (MIC) with Staphylococcus aureus [1] is 4 µg/mL (≈ 12.5 µM); in the experiment on Escherichia coli it was 16 µg/mL (≈ 50.1 µM); in the experiment on Staphylococcus aureus [2], 2 µg/mL (≈ 6.26 µM); against Staphylococcus aureus [3], over 64 µg/mL; with Staphylococcus aureus [4], 4 µg/mL (≈ 12.5 µM); in the experiment on Staphylococcus aureus [5], 2 µg/mL (≈ 6.26 µM). The MIC in the experiment with Staphylococcus aureus [6] was 8 µg/mL (≈ 25.1 µM); in the experiment with Staphylococcus aureus [7], over 64 µg/mL.
As for `Cc1ccc(COc2ccc(C=O)cc2)cc1`, the MIC against Staphylococcus aureus [1], with Escherichia coli, with Staphylococcus aureus [2], against Staphylococcus aureus [3], in the experiment with Staphylococcus aureus [4] and in the experiment on Staphylococcus aureus [5] was over 64 µg/mL in each case. Moreover, the MIC in the experiment with Staphylococcus aureus [6] and against Staphylococcus aureus [7] was over 64 µg/mL in each case.
Regarding `O=C1NC(=S)S/C1=C/c1ccc(/C=C/C(=O)c2cccc(Cl)c2)cc1`, the MIC in the experiment with Staphylococcus aureus [1], with Escherichia coli, against Staphylococcus aureus [2], in the experiment with Staphylococcus aureus [3], against Staphylococcus aureus [4] and against Staphylococcus aureus [5] was over 64 µg/mL each time. Moreover, the MIC in the experiment with Staphylococcus aureus [6] and in the experiment on Staphylococcus aureus [7] was over 64 µg/mL throughout.
Take `O=Cc1ccc(OCc2ccc(Cl)cc2)cc1`: the MIC in the experiment on Staphylococcus aureus [1], with Escherichia coli, against Staphylococcus aureus [2], in the experiment with Staphylococcus aureus [3], in the experiment with Staphylococcus aureus [4] and in the experiment with Staphylococcus aureus [5] was over 64 µg/mL throughout. Moreover, the MIC in the experiment with Staphylococcus aureus [6] and with Staphylococcus aureus [7] was over 64 µg/mL in each case.
On to `O=Cc1ccc(OCc2ccccc2Cl)cc1`, for which the MIC in the experiment on Staphylococcus aureus [1], against Escherichia coli, against Staphylococcus aureus [2], in the experiment with Staphylococcus aureus [3], with Staphylococcus aureus [4] and against Staphylococcus aureus [5] was over 64 µg/mL in each case. For the same compound, the MIC with Staphylococcus aureus [6] and in the experiment with Staphylococcus aureus [7] was over 64 µg/mL in each case.
Regarding `Cc1onc(-c2ccccc2)c1C(=O)N[C@@H]1C(=O)N2[C@@H]1SC(C)(C)[C@@H]2C(=O)O` [OXACILLIN], the MIC in the experiment with Staphylococcus aureus [1] is over 64 µg/mL; against Escherichia coli, over 64 µg/mL; in the experiment with Staphylococcus aureus [2] it was 1 µg/mL (≈ 2.49 µM); with Staphylococcus aureus [3] it was 1 µg/mL (≈ 2.49 µM); in the experiment on Staphylococcus aureus [4] it was 1 µg/mL (≈ 2.49 µM); in the experiment on Staphylococcus aureus [5], 1 µg/mL (≈ 2.49 µM). Also, the MIC is over 64 µg/mL with Staphylococcus aureus [6] and 1 µg/mL (≈ 2.49 µM) with Staphylococcus aureus [7].
For `O=Cc1ccc(OCc2ccc(Cl)cc2Cl)cc1`, the MIC in the experiment on Staphylococcus aureus [1], against Escherichia coli, against Staphylococcus aureus [2], against Staphylococcus aureus [3], against Staphylococcus aureus [4] and in the experiment on Staphylococcus aureus [5] was over 64 µg/mL each time. Moreover, the MIC against Staphylococcus aureus [6] and against Staphylococcus aureus [7] was over 64 µg/mL in each case.

Values taken from ChEMBL document CHEMBL2086385, “Synthesis and antimicrobial evaluation of L-phenylalanine-derived C5-substituted rhodanine and chalcone derivatives containing thiobarbituric acid or 2-thioxo-4-thiazolidinone” (2012).
